# PubChem BioAssay (NCI)
#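 48-hour exposure; five concentrations; linearly interpolated endpoints. TGI: concentration producing complete growth inhibition.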
# Legend:
# Assay in all cases: NCI tumour cell line growth inhibition, 48 h
# [1] = tested on: A498 renal
# [2] = tested on: LOX IMVI melanoma
# [3] = tested on: HT29 colon
# [4] = tested on: BT-549 breast
# [5] = tested on: SK-MEL-28 melanoma
# [6] = tested on: SK-OV-3 ovarian
# [7] = tested on: UACC-62 melanoma
# [8] = tested on: HOP-92 NSCLC
# [9] = tested on: ACHN renal
# [10] = tested on: NCI/ADR-RES ovarian
# [11] = tested on: IGROV1 ovarian
# [12] = tested on: RXF 393 renal
# [13] = tested on: OVCAR-8 ovarian
# [14] = tested on: HCC-2998 colon
# [15] = tested on: SF-295 CNS
# [16] = tested on: SF-268 CNS
# [17] = tested on: NCI-H23 lung
# [18] = tested on: RPMI-8226 leukemia
# [19] = tested on: MALME-3M melanoma
# [20] = tested on: HS 578T breast
# [21] = tested on: OVCAR-4 ovarian
# [22] = tested on: MCF7 breast
# [23] = tested on: SNB-19 CNS
# [24] = tested on: NCI-H522 lung
# [25] = tested on: SF-539 CNS
# [26] = tested on: OVCAR-5 ovarian
# [27] = tested on: UACC-257 melanoma
# [28] = tested on: HL-60(TB) leukemia
# [29] = tested on: COLO 205 colon
# [30] = tested on: 786-0 renal
# [31] = tested on: M14 melanoma
# [32] = tested on: KM12 colon
# [33] = tested on: SK-MEL-5 melanoma
# [34] = tested on: EKVX NSCLC
# [35] = tested on: CCRF-CEM leukemia
# [36] = tested on: A549 NSCLC
# [37] = tested on: SN12C renal
# [38] = tested on: MOLT-4 leukemia
# [39] = tested on: SNB-75 CNS
# [40] = tested on: UO-31 renal
# [41] = tested on: MDA-N
# [42] = tested on: CAKI-1 renal
# [43] = tested on: U251 CNS
# [44] = tested on: K-562 leukemia
# [45] = tested on: T-47D breast
# [46] = tested on: MDA-MB-435
# [47] = tested on: DU-145 prostate
# [48] = tested on: HOP-62 NSCLC
# [49] = tested on: SW-620 colon
# [50] = tested on: PC-3 prostate
# [51] = tested on: NCI-H460 lung
# [52] = tested on: OVCAR-3 ovarian
# [53] = tested on: NCI-H226 lung
# [54] = tested on: MDA-MB-231 breast
# [55] = tested on: HCT-116 colon
# [56] = tested on: HCT-15 colon
# [57] = tested on: SK-MEL-2 melanoma
# [58] = tested on: TK-10 renal
# [59] = tested on: SR leukemia
smiles,measurement,setting,value
COC(=O)CN1Cc2cc(C)cc(c2O)CN(CC(=O)OC)Cc2cc(C)cc(c2O)CN(CC(=O)OC)Cc2cc(C)cc(c2O)C1,TGI,[1],> 84.3 µM
same,TGI,[2],> 100 µM
same,TGI,[3],> 100 µM
same,TGI,[4],> 100 µM
same,TGI,[5],> 100 µM
same,TGI,[6],> 100 µM
same,TGI,[7],> 100 µM
same,TGI,[8],> 100 µM
same,TGI,[9],> 100 µM
same,TGI,[10],> 100 µM
same,TGI,[11],> 100 µM
same,TGI,[12],> 75 µM
same,TGI,[13],> 100 µM
same,TGI,[14],> 100 µM
same,TGI,[15],> 100 µM
same,TGI,[16],> 100 µM
same,TGI,[17],> 100 µM
same,TGI,[18],> 100 µM
same,TGI,[19],> 100 µM
same,TGI,[20],> 100 µM
same,TGI,[21],> 100 µM
same,TGI,[22],> 96.3 µM
same,TGI,[23],> 100 µM
same,TGI,[24],> 100 µM
same,TGI,[25],> 100 µM
same,TGI,[26],> 100 µM
same,TGI,[27],> 100 µM
same,TGI,[28],> 100 µM
same,TGI,[29],> 100 µM
same,TGI,[30],> 100 µM
same,TGI,[31],> 86.6 µM
same,TGI,[32],> 100 µM
same,TGI,[33],> 100 µM
same,TGI,[34],> 100 µM
same,TGI,[35],> 100 µM
same,TGI,[36],> 100 µM
same,TGI,[37],> 100 µM
same,TGI,[38],> 100 µM
same,TGI,[39],> 74.7 µM
same,TGI,[40],> 100 µM
same,TGI,[41],> 100 µM
same,TGI,[42],> 100 µM
same,TGI,[43],> 100 µM
same,TGI,[44],> 100 µM
same,TGI,[45],> 68.5 µM
same,TGI,[46],> 100 µM
same,TGI,[47],> 100 µM
same,TGI,[48],> 100 µM
same,TGI,[49],> 100 µM
same,TGI,[50],> 73.7 µM
same,TGI,[51],> 100 µM
same,TGI,[52],> 100 µM
same,TGI,[53],> 61.3 µM
same,TGI,[54],> 77.2 µM
same,TGI,[55],> 100 µM
same,TGI,[56],> 100 µM
same,TGI,[57],> 77.1 µM
same,TGI,[58],> 100 µM
same,TGI,[59],> 100 µM
CC(C)(C)c1ccc(S(=O)(=O)N2C(c3cccc(C4CC[C@@H](C(=O)O)N4S(=O)(=O)c4ccc(C(C)(C)C)cc4)c3)CC[C@H]2C(=O)O)cc1 (stereo partly drawn),TGI,[1],> 100 µM
same,TGI,[2],> 100 µM
same,TGI,[3],> 100 µM
same,TGI,[4],> 100 µM
same,TGI,[5],> 100 µM
same,TGI,[6],> 100 µM
same,TGI,[7],> 100 µM
same,TGI,[8],> 100 µM
same,TGI,[9],> 100 µM
same,TGI,[10],> 100 µM
same,TGI,[11],> 100 µM
same,TGI,[12],> 100 µM
same,TGI,[13],> 100 µM
same,TGI,[14],> 100 µM
same,TGI,[15],> 100 µM
same,TGI,[16],> 100 µM
same,TGI,[17],> 100 µM
same,TGI,[18],> 100 µM
same,TGI,[19],> 100 µM
same,TGI,[20],> 100 µM
same,TGI,[21],> 100 µM
same,TGI,[22],> 100 µM
same,TGI,[23],> 100 µM
same,TGI,[24],> 100 µM
same,TGI,[25],> 100 µM
same,TGI,[26],> 100 µM
same,TGI,[27],> 100 µM
same,TGI,[28],> 100 µM
same,TGI,[29],> 100 µM
same,TGI,[30],> 100 µM
same,TGI,[31],> 100 µM
same,TGI,[32],> 100 µM
same,TGI,[33],> 100 µM
same,TGI,[34],> 100 µM
same,TGI,[35],> 100 µM
same,TGI,[36],> 100 µM
same,TGI,[37],> 100 µM
same,TGI,[38],> 100 µM
same,TGI,[39],> 100 µM
same,TGI,[40],87.3 µM
same,TGI,[41],> 100 µM
same,TGI,[42],> 100 µM
same,TGI,[43],> 100 µM
same,TGI,[44],> 100 µM
same,TGI,[45],> 100 µM
same,TGI,[46],> 100 µM
same,TGI,[47],> 100 µM
same,TGI,[48],> 100 µM
same,TGI,[49],> 100 µM
same,TGI,[50],> 100 µM
same,TGI,[51],> 100 µM
same,TGI,[52],> 100 µM
same,TGI,[53],> 100 µM
same,TGI,[54],> 100 µM
same,TGI,[55],> 100 µM
same,TGI,[56],> 100 µM
same,TGI,[57],> 100 µM
same,TGI,[58],> 100 µM
same,TGI,[59],> 100 µM
